Measured values reported in patent US20210380602A1, “NOVEL PYRROLE AND PYRIDONE DERIVATIVES AND USES THEREOF” (VIRGINIA COMMONWEALTH UNIVERSITY, priority 2018, published 2021).
Where two headings read alike, the source gives them in different places.

System: HIV-1IIIB
Experiment: Anti-HIV cytoprotection assay in CEM-SS cells infected with HIV-1IIIB, XTT viability readout after 6 days
Format: cell-based
Procedure: (§1) In some aspect, CEM-SS cells were incubated at 37° C./5% CO2 with serially diluted compound and a known titer of HIV-1IIIB for 6 days. The CEM-SS cell line is a derivative of the human T lymphosarcoma cell line CEM that is permissive for vif-deficient HIV-1 replication. Following the incubation, the cells were stained with the tetrazolium dye XTT and read at 460/650 nm on a spectrophotometer to evaluate cellular viability. Efficacy and toxicity values were calculated using linear regression analysis. The efficacy of compound H-a was compared to that of dolutegravir. The EC50 of compound II-a was in a range of 0.070-0.02 nM (e.g. 0.070, 0.075, 0.080, 0.085, 0.090, 0.095, 0.010, 0.015 or 0.02 nM)
as §1, with “CEM-SS” for “In some aspect, CEM-SS”, “analysis.” for “analysis. The efficacy of compound H-a was compared to that of dolutegravir. The EC50 of compound II-a was in a range of 0.070-0.02 nM (e.g. 0.070, 0.075, 0.080, 0.085, 0.090, 0.095, 0.010, 0.015 or 0.02 nM)”

EC50 (Human immunodeficiency virus 1, CEM-SS, 144 h) [nM]	EC50 [nM]	Compound
0.12	–	C[C@@H]1CCO[C@H]2Cn3cc(C(=O)NCc4ccc(F)cc4F)c(=O)c(O)c3C(=O)N12 [Compound I, Dolutegravir]
–	0.095	C[C@@H]1CCO[C@H]2Cn3cc(C(=O)C(=O)NCc4ccc(F)cc4F)c(O)c3C(=O)N12 [Compound II-a]
